Source: PubChem BioAssay AID248 (DTP/NCI, 2004)
Values joined by “and” are separate entries in the source; they are usually repeats but may differ in a detail not shown here. Identical values can stand only once. Inconclusive results and toxic doses are left out.

Tested on: L1210 leukemia ip in BDF1 mice, survival T/C
Assay: NCI In Vivo Anticancer Drug Screen. Data for tumor model L1210 Leukemia (intraperitoneal) in B6D2F1 (BDF1) mice
Conditions: endpoint: mean survival time, higher = longer survival
Outline: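 Ratio derived from survival: compound-dosed mice over vehicle-dosed mice, all bearing a transplantable tumor.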

For `COc1ccc(C(O)CN)cc1` (configuration not stated), the T/C (dose: 50.0 mg/kg/injection, schedule: Q01DX009 (ip), vehicle: saline) was 93 % of control, the T/C (dose: 100.0 mg/kg/injection, schedule: Q01DX009 (ip), vehicle: saline) was 102 % of control and the T/C (dose: 100.0 mg/kg/injection, schedule: Q04DX003 (ip), vehicle: saline) was 105 % of control. For the same molecule, the T/C (dose: 200.0 mg/kg/injection, schedule: Q01DX009 (ip), vehicle: saline) was 95 % of control and 102 % of control and the T/C (dose: 200.0 mg/kg/injection, schedule: Q04DX003 (ip), vehicle: saline) was 103 % of control.

`Cc1cc(=O)[nH]c2c(OCOc3cccc4c(C)cc(=O)[nH]c34)cccc12` was tested, and the T/C (dose: 100.0 mg/kg/injection, schedule: Q04DX003 (ip), vehicle: Klucel (hydroxypropylcellulose) (HPC)) was 97 % of control, the T/C (dose: 200.0 mg/kg/injection, schedule: Q04DX003 (ip), vehicle: Klucel (hydroxypropylcellulose) (HPC)) was 100 % of control and the T/C (dose: 400.0 mg/kg/injection, schedule: Q04DX003 (ip), vehicle: Klucel (hydroxypropylcellulose) (HPC)) was 94 % of control.

With `COC(=O)CCCC1CC(=O)c2c(c(O)c3ccccc3c2O)C1=O` (configuration not stated) the T/C (dose: 100.0 mg/kg/injection, schedule: Q01DX005 (ip), vehicle: saline with Tween-80) was 92 % of control, the T/C (dose: 100.0 mg/kg/injection, schedule: Q04DX003 (ip), vehicle: saline with Tween-80) was 119 % of control and the T/C (dose: 200.0 mg/kg/injection, schedule: Q01DX005 (ip), vehicle: saline with Tween-80) was 95 % of control. For the same molecule, the T/C (dose: 200.0 mg/kg/injection, schedule: Q04DX003 (ip), vehicle: saline with Tween-80) was 105 % of control, the T/C (dose: 400.0 mg/kg/injection, schedule: Q01DX005 (ip), vehicle: saline with Tween-80) was 97 % of control and the T/C (dose: 400.0 mg/kg/injection, schedule: Q04DX003 (ip), vehicle: saline with Tween-80) was 103 % of control.

With `CS(=O)(=O)Nc1ccccc1` the T/C (dose: 75.0 mg/kg/injection, schedule: Q04DX003 (ip), vehicle: Klucel (hydroxypropylcellulose) (HPC)) was 98 % of control, the T/C (dose: 100.0 mg/kg/injection, schedule: Q01DX001 (ip), vehicle: Klucel (hydroxypropylcellulose) (HPC)) was 96 % of control and the T/C (dose: 150.0 mg/kg/injection, schedule: Q04DX003 (ip), vehicle: Klucel (hydroxypropylcellulose) (HPC)) was 93 % of control. For the same molecule, the T/C (dose: 200.0 mg/kg/injection, schedule: Q01DX001 (ip), vehicle: Klucel (hydroxypropylcellulose) (HPC)) was 101 % of control, the T/C (dose: 300.0 mg/kg/injection, schedule: Q04DX003 (ip), vehicle: Klucel (hydroxypropylcellulose) (HPC)) was 93 % of control and the T/C (dose: 400.0 mg/kg/injection, schedule: Q01DX001 (ip), vehicle: Klucel (hydroxypropylcellulose) (HPC)) was 96 % of control.

With `CCOC=Nc1ccc(-n2cnc3c(Cl)ncnc32)cc1C` the T/C (dose: 100.0 mg/kg/injection, schedule: Q01DX001 (ip), vehicle: carboxymethylcellulose (CMC)) was 91 % of control and the T/C (dose: 400.0 mg/kg/injection, schedule: Q01DX001 (ip), vehicle: carboxymethylcellulose (CMC)) was 98 % of control.

For `COC(=O)c1[nH]c(=O)[nH]c(=O)c1F`, the T/C (dose: 1.0 mg/kg/injection, schedule: Q01DX009 (ip), vehicle: saline with Tween-80) was 103 % of control, the T/C (dose: 1.0 mg/kg/injection, schedule: Q01DX Z (ip), vehicle: methylcellulose (MC)) was 115 % of control and the T/C (dose: 2.0 mg/kg/injection, schedule: Q01DX009 (ip), vehicle: saline with Tween-80) was 110 % of control. For the same molecule, the T/C (dose: 2.0 mg/kg/injection, schedule: Q01DX Z (ip), vehicle: carboxymethylcellulose (CMC)) was 118 % of control, the T/C (dose: 3.0 mg/kg/injection, schedule: Q01DX Z (ip), vehicle: carboxymethylcellulose (CMC)) was 124 % of control and the T/C (dose: 3.0 mg/kg/injection, schedule: Q01DX Z (ip), vehicle: methylcellulose (MC)) was 151 % of control. The T/C (dose: 4.0 mg/kg/injection, schedule: Q01DX009 (ip), vehicle: saline with Tween-80) was 123 % of control, the T/C (dose: 5.0 mg/kg/injection, schedule: Q01DX Z (ip), vehicle: carboxymethylcellulose (CMC)) was 185 % of control and the T/C (dose: 6.0 mg/kg/injection, schedule: Q01DX Z (ip), vehicle: methylcellulose (MC)) was 172 % of control. The T/C (dose: 8.0 mg/kg/injection, schedule: Q01DX009 (ip), vehicle: saline with Tween-80) was 167 % of control, the T/C (dose: 8.0 mg/kg/injection, schedule: Q01DX Z (ip), vehicle: carboxymethylcellulose (CMC)) was 150 % of control and the T/C (dose: 17.0 mg/kg/injection, schedule: Q01DX Z (ip), vehicle: carboxymethylcellulose (CMC)) was 97 % of control. For the same molecule, the T/C (dose: 24.0 mg/kg/injection, schedule: Q01DX Z (ip), vehicle: methylcellulose (MC)) was 114 % of control, the T/C (dose: 25.0 mg/kg/injection, schedule: Q01DX Z (ip), vehicle: carboxymethylcellulose (CMC)) was 120 % of control and the T/C (dose: 32.0 mg/kg/injection, schedule: Q01DX009 (ip), vehicle: saline with Tween-80) was 92 % of control. The T/C (dose: 32.0 mg/kg/injection, schedule: Q04DX003 (ip), vehicle: saline with Tween-80) was 157 % of control, the T/C (dose: 38.0 mg/kg/injection, schedule: Q01DX Z (ip), vehicle: carboxymethylcellulose (CMC)) was 101 % of control and the T/C (dose: 48.0 mg/kg/injection, schedule: Q01DX Z (ip), vehicle: methylcellulose (MC)) was 114 % of control. The T/C (dose: 64.0 mg/kg/injection, schedule: Q04DX003 (ip), vehicle: saline with Tween-80) was 215 % of control and the T/C (dose: 90.0 mg/kg/injection, schedule: Q01DX Z (ip), vehicle: methylcellulose (MC)) was 91 % of control.
